According to patent publication US12479847B2 (DANA-FARBER CANCER INSTITUTE, INC., priority 2019, dated 2025):

Legend:
Experiment in all cases: KINOMEscan (ScanMAX) kinase profiling
Assay type in all cases: binding
[1] = biological target: T1, panel of 468 kinases (Homo sapiens, UniProt P00533, L861Q); conditions: EGFR(L861Q); 1 μM; read-out: % control
T1 construct: purchased KINOMEscan (ScanMAX) service

[2] = biological target: T2, panel of 468 kinases (Homo sapiens, UniProt Q8IY84); conditions: NIM1; 1 μM; read-out: % control
T2 construct: purchased KINOMEscan (ScanMAX) service
T2 sequence (Q8IY84 whole entry): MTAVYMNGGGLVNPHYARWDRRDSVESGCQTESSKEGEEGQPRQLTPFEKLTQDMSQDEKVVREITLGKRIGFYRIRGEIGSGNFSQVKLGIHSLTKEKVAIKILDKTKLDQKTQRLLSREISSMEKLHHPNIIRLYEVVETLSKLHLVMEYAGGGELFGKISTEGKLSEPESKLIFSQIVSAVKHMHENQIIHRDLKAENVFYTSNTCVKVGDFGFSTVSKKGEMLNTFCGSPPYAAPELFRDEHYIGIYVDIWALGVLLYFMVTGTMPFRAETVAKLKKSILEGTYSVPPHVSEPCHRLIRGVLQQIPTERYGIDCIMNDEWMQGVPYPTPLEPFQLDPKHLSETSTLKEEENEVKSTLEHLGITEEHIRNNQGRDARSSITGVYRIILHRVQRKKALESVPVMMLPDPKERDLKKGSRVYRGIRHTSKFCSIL

[3] = biological target: T3, panel of 468 kinases (Homo sapiens, UniProt Q92918); conditions: HPK1; 1 μM; read-out: % control
T3 construct: purchased KINOMEscan (ScanMAX) service
T3 sequence (Q92918 whole entry): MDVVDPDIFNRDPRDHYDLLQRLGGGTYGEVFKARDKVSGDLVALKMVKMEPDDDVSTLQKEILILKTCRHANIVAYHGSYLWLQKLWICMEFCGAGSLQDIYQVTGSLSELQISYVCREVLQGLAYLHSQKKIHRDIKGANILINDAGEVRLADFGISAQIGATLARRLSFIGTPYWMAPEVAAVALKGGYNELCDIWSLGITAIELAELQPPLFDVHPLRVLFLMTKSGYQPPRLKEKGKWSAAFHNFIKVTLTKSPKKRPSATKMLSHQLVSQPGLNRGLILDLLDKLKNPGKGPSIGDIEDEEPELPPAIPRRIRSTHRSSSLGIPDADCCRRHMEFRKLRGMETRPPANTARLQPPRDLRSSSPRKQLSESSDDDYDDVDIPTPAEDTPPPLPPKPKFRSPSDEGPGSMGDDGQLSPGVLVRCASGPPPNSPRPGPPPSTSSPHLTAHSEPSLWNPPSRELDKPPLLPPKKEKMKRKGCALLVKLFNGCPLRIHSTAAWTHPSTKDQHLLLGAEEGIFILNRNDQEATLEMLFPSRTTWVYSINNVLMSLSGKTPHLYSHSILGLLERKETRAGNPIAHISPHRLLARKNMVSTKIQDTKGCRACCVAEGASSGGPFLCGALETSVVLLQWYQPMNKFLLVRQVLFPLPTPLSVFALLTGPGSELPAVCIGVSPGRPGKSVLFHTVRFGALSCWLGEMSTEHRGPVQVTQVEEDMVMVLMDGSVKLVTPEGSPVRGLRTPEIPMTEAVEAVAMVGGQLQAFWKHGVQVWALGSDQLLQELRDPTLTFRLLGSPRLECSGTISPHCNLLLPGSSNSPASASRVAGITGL

[4] = biological target: T4, panel of 468 kinases (Homo sapiens, UniProt P52564); conditions: MEK6; 1 μM; read-out: % control
T4 construct: purchased KINOMEscan (ScanMAX) service
T4 sequence (P52564 1-334): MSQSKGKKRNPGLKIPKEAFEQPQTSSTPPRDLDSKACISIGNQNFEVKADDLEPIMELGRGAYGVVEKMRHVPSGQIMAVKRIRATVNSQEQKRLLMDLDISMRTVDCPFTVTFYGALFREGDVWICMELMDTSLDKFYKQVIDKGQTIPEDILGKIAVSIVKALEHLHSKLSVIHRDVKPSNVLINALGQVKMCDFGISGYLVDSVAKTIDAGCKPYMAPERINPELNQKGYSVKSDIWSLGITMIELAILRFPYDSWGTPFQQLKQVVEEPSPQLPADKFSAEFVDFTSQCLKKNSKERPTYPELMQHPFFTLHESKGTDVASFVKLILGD

[5] = biological target: T5, panel of 468 kinases (Homo sapiens, UniProt Q12851); conditions: MAP4K2; 1 μM; read-out: % control
T5 construct: purchased KINOMEscan (ScanMAX) service
T5 sequence (Q12851 1-820): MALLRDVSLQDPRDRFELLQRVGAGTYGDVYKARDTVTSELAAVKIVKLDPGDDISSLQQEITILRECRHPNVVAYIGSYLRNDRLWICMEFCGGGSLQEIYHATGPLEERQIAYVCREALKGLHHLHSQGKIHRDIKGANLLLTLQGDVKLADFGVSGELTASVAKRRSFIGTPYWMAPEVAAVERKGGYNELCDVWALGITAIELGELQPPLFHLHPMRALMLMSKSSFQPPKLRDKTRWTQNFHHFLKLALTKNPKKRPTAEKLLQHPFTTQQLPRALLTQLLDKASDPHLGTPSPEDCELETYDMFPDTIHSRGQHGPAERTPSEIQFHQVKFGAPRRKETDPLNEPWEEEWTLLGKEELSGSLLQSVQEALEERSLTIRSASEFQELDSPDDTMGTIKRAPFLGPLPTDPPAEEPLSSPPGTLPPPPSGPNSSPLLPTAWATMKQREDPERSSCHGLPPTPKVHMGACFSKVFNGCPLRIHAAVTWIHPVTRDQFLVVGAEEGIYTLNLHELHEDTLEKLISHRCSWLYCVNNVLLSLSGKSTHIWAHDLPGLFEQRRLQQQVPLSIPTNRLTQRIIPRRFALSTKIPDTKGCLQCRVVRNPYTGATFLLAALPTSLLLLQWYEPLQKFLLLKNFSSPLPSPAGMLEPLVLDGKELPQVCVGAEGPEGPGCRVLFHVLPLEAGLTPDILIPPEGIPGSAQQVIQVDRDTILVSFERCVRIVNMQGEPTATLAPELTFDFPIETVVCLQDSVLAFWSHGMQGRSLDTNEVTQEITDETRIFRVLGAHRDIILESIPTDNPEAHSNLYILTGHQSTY

[6] = biological target: T6, panel of 468 kinases (Homo sapiens, UniProt P53350); conditions: PLK1; 1 μM; read-out: % control
T6 construct: purchased KINOMEscan (ScanMAX) service
T6 sequence (P53350 whole entry): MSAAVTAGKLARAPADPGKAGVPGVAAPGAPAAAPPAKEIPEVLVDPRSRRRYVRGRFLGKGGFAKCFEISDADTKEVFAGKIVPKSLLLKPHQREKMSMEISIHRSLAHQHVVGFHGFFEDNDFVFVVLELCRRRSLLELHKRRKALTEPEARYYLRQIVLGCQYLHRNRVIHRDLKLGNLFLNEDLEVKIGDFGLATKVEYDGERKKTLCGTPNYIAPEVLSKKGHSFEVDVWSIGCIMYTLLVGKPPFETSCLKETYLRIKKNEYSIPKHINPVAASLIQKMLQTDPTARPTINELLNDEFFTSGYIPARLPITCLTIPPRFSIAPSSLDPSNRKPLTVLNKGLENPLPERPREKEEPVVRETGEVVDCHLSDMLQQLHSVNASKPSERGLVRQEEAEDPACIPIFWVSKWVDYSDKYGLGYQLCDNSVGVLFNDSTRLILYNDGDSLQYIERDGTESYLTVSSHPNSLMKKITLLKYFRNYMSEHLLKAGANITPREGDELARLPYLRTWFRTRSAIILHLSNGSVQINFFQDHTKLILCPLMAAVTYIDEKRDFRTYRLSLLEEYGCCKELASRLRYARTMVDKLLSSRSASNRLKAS

[7] = biological target: T7, panel of 468 kinases (Homo sapiens, UniProt P43405); conditions: SYK; 1 μM; read-out: % control
T7 construct: purchased KINOMEscan (ScanMAX) service

[8] = biological target: T8, panel of 468 kinases (Homo sapiens, UniProt Q15303); conditions: ERBB4; 1 μM; read-out: % control
T8 construct: purchased KINOMEscan (ScanMAX) service
T8 sequence (Q15303 26-1308): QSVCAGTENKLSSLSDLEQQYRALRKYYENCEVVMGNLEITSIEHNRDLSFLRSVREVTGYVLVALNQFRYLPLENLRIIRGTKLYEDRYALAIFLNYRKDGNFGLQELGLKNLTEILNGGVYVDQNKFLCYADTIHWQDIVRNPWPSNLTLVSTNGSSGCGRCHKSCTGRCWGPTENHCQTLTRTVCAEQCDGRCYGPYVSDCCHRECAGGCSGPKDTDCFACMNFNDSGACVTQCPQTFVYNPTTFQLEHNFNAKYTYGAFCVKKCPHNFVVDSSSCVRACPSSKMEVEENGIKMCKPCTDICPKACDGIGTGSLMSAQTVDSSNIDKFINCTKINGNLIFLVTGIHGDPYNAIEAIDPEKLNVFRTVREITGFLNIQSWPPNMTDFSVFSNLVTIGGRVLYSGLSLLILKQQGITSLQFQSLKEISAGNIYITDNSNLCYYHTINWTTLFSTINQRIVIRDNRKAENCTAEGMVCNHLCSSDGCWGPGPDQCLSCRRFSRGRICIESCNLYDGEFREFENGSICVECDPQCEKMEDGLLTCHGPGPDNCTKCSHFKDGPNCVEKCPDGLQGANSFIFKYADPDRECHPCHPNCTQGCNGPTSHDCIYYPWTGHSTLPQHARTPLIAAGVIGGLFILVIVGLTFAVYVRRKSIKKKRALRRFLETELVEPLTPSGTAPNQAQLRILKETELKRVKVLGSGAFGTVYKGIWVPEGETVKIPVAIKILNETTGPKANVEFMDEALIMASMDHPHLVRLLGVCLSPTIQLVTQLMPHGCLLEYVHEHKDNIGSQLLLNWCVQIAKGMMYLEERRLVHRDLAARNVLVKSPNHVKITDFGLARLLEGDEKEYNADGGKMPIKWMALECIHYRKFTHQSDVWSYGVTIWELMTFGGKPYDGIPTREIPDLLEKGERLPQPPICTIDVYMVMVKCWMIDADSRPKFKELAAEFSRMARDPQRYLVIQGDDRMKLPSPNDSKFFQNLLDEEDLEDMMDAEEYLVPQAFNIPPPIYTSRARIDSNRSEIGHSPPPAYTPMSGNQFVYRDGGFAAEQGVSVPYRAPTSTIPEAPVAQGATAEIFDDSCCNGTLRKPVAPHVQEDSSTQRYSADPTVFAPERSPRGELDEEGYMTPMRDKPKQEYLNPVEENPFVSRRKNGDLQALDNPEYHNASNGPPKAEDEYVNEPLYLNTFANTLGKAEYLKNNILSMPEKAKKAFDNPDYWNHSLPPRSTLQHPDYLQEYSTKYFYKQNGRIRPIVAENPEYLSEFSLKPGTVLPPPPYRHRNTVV

[9] = biological target: T9, panel of 468 kinases (Homo sapiens, UniProt O43293); conditions: DAPK3; 1 μM; read-out: % control
T9 construct: purchased KINOMEscan (ScanMAX) service
T9 sequence (O43293 whole entry): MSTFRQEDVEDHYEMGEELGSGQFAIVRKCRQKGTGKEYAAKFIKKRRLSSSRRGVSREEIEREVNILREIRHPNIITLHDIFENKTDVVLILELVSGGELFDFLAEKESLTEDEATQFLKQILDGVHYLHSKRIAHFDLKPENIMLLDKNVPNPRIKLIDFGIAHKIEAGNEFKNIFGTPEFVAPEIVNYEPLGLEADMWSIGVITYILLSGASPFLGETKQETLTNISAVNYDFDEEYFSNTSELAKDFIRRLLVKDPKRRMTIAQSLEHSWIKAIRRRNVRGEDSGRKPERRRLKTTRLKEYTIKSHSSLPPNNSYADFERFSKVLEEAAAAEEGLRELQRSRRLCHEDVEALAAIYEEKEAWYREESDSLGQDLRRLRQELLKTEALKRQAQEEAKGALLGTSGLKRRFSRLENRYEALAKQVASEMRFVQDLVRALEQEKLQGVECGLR

T1 sequence (P00533 25-1210 L861Q): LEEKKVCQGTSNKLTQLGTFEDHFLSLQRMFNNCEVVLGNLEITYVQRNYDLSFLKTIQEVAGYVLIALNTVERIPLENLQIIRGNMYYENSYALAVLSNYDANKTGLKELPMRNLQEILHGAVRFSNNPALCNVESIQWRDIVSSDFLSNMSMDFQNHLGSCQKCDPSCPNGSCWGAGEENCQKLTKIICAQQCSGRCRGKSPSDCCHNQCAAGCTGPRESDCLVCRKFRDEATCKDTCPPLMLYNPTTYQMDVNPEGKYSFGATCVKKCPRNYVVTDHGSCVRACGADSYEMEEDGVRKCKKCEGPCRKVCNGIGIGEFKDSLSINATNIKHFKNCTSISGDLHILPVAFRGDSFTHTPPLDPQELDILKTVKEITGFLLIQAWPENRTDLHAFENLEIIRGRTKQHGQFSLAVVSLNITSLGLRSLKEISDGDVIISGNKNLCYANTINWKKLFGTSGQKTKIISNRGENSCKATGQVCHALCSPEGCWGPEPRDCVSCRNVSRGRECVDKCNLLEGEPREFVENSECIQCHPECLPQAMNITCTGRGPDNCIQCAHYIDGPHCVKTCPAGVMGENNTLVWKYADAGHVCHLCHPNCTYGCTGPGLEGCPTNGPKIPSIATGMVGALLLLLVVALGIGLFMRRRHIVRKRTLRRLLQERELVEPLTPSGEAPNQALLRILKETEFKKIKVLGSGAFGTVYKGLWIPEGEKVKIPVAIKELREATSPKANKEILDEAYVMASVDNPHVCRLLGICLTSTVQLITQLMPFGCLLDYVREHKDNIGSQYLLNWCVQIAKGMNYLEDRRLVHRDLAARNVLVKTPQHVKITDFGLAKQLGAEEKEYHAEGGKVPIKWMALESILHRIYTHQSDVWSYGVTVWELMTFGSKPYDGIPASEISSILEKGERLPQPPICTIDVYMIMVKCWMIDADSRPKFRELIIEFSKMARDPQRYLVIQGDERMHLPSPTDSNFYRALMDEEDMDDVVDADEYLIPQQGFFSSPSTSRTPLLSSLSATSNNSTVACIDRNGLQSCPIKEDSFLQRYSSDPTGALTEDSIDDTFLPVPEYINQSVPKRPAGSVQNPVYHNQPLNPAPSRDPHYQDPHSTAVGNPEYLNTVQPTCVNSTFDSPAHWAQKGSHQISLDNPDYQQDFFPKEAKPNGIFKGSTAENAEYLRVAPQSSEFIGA

Row | Structure (SMILES) | remaining binding at 1 µM [1] | remaining binding at 1 µM [2] | remaining binding at 1 µM [3] | remaining binding at 1 µM [4] | remaining binding at 1 µM [5] | remaining binding at 1 µM [6] | remaining binding at 1 µM [7] | remaining binding at 1 µM [8] | remaining binding at 1 µM [9]
1 | CNc1nc(Nc2ccc(C(=O)N3CCC(N4CCOCC4)CC3)c3c2OCO3)nc2[nH]cc(Cl)c12 [Compound 75, (7-((5-chloro-4-(methylamino)-7H-pyrrolo[2,3-d]pyrimidin-2-yl)amino)benzo[d][1,3]dioxol-4-yl)(4-morpholinopiperidin-1-yl)methanone] | 100% | 73% | 47% | 10% | 6.2% | 78% | 35% | 90% | 16%
2 | CNc1nc(Nc2ccc(S(=O)(=O)N3CCC(N4CCOCC4)CC3)cc2OC)nc2[nH]cc(Cl)c12 [Compound 12, 5-chloro-N2-(2-methoxy-4-((4-morpholinopiperidin-1-yl)sulfonyl)phenyl)-N4-methyl-7H-pyrrolo[2,3-d]pyrimidine-2,4-diamine] | 100% | 82% | 78% | 96% | 61% | 82% | 55% | 99% | 35%
3 | CNc1nc(Nc2ccc(P3(=O)CCN(C4CCOCC4)CC3)cc2OC)nc2[nH]cc(Cl)c12 [Compound 77, 4-(4-((5-chloro-4-(methylamino)-7H-pyrrolo[2,3-d]pyrimidin-2-yl)amino)-3-methoxyphenyl)-1-(tetrahydro-2H-pyran-4-yl)-1,4-azaphosphinane 4-oxide] | 100% | 88% | 97% | 56% | 39% | 86% | 43% | 88% | 9.9%
